Article PMC10898118, “Biocatalytic cascade to polysaccharide amination” (Biotechnology for Biofuels and Bioproducts, 2024)

Biological target: T1, CvATA (Chromobacterium violaceum, UniProt Q7NWG4)
T1 construct: gene CV_2025; dimer
T1 sequence (Q7NWG4 1-459): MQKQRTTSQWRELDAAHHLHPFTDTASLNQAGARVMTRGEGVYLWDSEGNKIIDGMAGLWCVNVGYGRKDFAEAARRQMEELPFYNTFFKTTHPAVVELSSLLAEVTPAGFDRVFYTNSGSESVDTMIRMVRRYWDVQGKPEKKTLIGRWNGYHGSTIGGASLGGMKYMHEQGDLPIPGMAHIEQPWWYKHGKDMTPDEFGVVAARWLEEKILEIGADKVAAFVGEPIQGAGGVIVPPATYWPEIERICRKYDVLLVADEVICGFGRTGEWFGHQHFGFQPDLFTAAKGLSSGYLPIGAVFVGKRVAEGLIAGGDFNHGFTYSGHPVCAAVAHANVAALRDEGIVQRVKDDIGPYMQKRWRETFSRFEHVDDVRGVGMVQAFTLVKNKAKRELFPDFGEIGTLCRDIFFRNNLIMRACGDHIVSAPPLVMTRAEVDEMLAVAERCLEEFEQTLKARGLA
Assay: acetophenone assay, UV […] nm
Format: biochemical
Conditions: 5 mM galactose pre-oxidized in situ by FgrGaOx (catalase, HRP), 5 mM (S)-1-phenylethylamine, 20 µM PLP, 50 mM HEPES pH 7.5, 37 °C

O=C[C@@H](O)[C@H](O)[C@H](O)[C@@H](O)C=O [oxidized galactose]
acetophenone assay, UV 245 nm: initial activity of CvATA on pyruvate and oxidized galactose
